Earlier results in patent US12036321B2, “Compositions and methods for treating or preventing multiple organ dysfunction syndrome” (VIVACELLE BIO, INC., priority 2020, dated 2024).
Where two headings read alike, the source gives them in different places.

How the values were obtained:
[1] = test system: Nitric oxide synthase (NOS); conditions: nitric oxide synthase inhibitor, Lopez et al., Crit. Care Med. 2004
[2] = Battion et al., J Amer Oil Chem Soc 1968
human neutrophils = conditions: Simpkins et al., Life Sci 1985

CN=C(N)NCCC[C@H](N)C(=O)O.Cl [546C88]
outcome of trial in patients with septic shock [1]: increased mortality and multiple organ failure
outcome of trial in patients with septic shock ([1]; listed as 54C88): increased mortality

O=O [Oxygen]
solubility of oxygen in lipid relative to water [2]: 4.41 times

C=CCN1CC[C@]23c4c5ccc(O)c4O[C@H]2C(=O)CC[C@]3(O)[C@H]1C5 [(+) naloxone]
concentration range that produces anti-inflammatory effect (human neutrophils): 10^−5-10^−4 M
